Results on 6 molecules are retold here after PMC1525162 (BMC Pharmacology, 2006).

For assay [1], the system named is wild type and L24A, L34A, L24A,L34A CLR-RAMP1 (HEK293T-RAMP1 cells). The experiment in a line: cAMP generation, wild type and leucine mutant CLRs compared. To be noted: L24A, L34A, L24A,L34A vs wild type CLR.
The target in assay [2] is T1, wild type CLR-RAMP1 heterodimer (HEK293T-RAMP1 membranes) (Homo sapiens, UniProt O60894+Q16602). Briefly: Competition radioligand binding, wild type CLR. Conditions: compared to Ki of CGRP. Here is the method:
(§1) A crude cell membrane preparation was prepared as previously described. Briefly, HEK293T-RAMP1 membranes were prepared by scraping and transferring cells to a 50 mL conical tube using cold HBSS followed with two washings by centrifugation at 1000 × g using cold HBSS. The intact cell pellet was resuspended in 10 mL of 0.25 M sucrose containing a protease inhibitor cocktail consisting of 10μg/mL benzamidine, 10μg/mL leupeptin, and 20μg/mL phenylmethysulfonylfluoride. The cells were disrupted by freezing followed by Dounce homogenization of the thawed suspension using 20 strokes from a loose fitting (B) pestle. This mixture was then centrifuged at 1260 × g for 5 min at 4°C. Buffer A (20 mM HEPES, pH 7.5, 1.4 mM EGTA, 12.5 mM MgCl2, 10μg/mL benzamidine, 10μg/mL leupeptin, and 20μg/mL phenylmethysulfonylfluoride) was added to the supernatant and centrifuged again at 30,000 × g for 15 min at 4°C. The resultant pellet was kept, resuspended in buffer A then centrifuged once more at 30,000 × g for 15 min at 4°C. […] Protein concentrations were measured using the method of Bradford.
(§2) The radioligand binding protocol used for this study was performed as previously described. […] Amounts of total and non-specific radiolabel bound to cell membranes were calculated from radioactive counts remaining on the glass fiber filters.

Assay [3] deals with L24A, L34A and L24A,L34A CLR-RAMP1 heterodimers versus wild type. Briefly: Competition/saturation binding, leucine mutant CLRs compared with wild type. Further details: species or system human. Conditions: for affinity at leucine mutants compared with wild type: L34A, L24A,L34A vs wild type CLR. On the procedure: A crude cell membrane preparation was prepared as previously described. Briefly, HEK293T-RAMP1 membranes were prepared by scraping and transferring cells to a 50 mL conical tube using cold HBSS followed with two washings by centrifugation at 1000 × g using cold HBSS. The intact cell pellet was resuspended in 10 mL of 0.25 M sucrose containing a protease inhibitor cocktail consisting of 10μg/mL benzamidine, 10μg/mL leupeptin, and 20μg/mL phenylmethysulfonylfluoride. The cells were disrupted by freezing followed by Dounce homogenization of the thawed suspension using 20 strokes from a loose fitting (B) pestle. This mixture was then centrifuged at 1260 × g for 5 min at 4°C. Buffer A (20 mM HEPES, pH 7.5, 1.4 mM EGTA, 12.5 mM MgCl2, 10μg/mL benzamidine, 10μg/mL leupeptin, and 20μg/mL phenylmethysulfonylfluoride) was added to the supernatant and centrifuged again at 30,000 × g for 15 min at 4°C. The resultant pellet was kept, resuspended in buffer A then centrifuged once more at 30,000 × g for 15 min at 4°C. The final crude membrane pellet was resuspended in buffer A containing 10% glycerol and stored in aliquots at -70°C until used for radioligand binding. Protein concentrations were measured using the method of Bradford.
The radioligand binding protocol used for this study was performed as previously described. […] Binding was stopped by filtering the membranes though Whatman GF/C glass fiber filters, followed by 5 – 5 mL washes with cold buffer B (20 mM HEPES, pH 7.5, 1.4 mM EGTA, 12.5 mM MgCl2) to remove any unbound drug. Amounts of total and non-specific radiolabel bound to cell membranes were calculated from radioactive counts remaining on the glass fiber filters.

In assay [4] the test system is endogenous CGRP receptors on acutely isolated pancreatic acinar cells. Further details: method as in PMID 7689110. To be noted: cited from earlier work.
Assay [5] has as its target wild type CLR-RAMP1 (transiently transfected HEK293T-RAMP1 cells) (Homo sapiens, UniProt O60894+Q16602). The experiment in a line: cAMP generation, wild type CLR. In kind it is cell-based.
The subject of assay [6] is endogenous CGRP receptor expressed on SK-N-MC human neuroblastoma cells. To be noted: cited from earlier work. An excerpt: (§3) Consequently, it is reasonable to assume that interactions of CGRP-F37 with the mature CLR-RAMP1 heterodimer would necessitate a more complex relationship in order to account for the high affinity binding associated with ...
The test system of assay [7] is CGRP receptor. Conditions: displaced by CGRP and CGRP(8–37); cited from earlier work.
Text: as §3

Assay [8] deals with CLR-RAMP1 heterodimer with the L24A CLR mutant (UniProt Q16602). The experiment in a line: radioligand binding; competition: increasing unlabeled peptide against specific [125I-Tyr]CGRP(8–37) binding on crude membranes of transiently transfected HEK293T-RAMP1 cells, same buffer as the saturation binding; Ki from IC50 by the method of Cheng and Prusoff.
The target in assay [9] is CLR-RAMP1 heterodimer, wild type calcitonin-like receptor (CLR) with receptor-activity-modifying protein-1 (RAMP1) (UniProt Q16602). The description is as above.
The target in assay [10] is CLR-RAMP1 heterodimer with the L34A CLR mutant (UniProt Q16602). Described as above.
Assay [11] concerns the target CLR-RAMP1 heterodimer with the L24A,L34A CLR double mutant (UniProt Q16602). Described as above.
Assay [12] deals with endogenous CGRP receptors expressed in the guinea pig atria. Further details: method as in Rovero et al., 1992. To be noted: estimated from functional characterization, n = 3, ref Rovero et al., 1992, read-out: Reported Wild Type, equilibrium dissociation constant; cited from earlier work.
Assay [13] addresses CGRP receptors endogenously expressed in rat brain and peripheral tissues. Also noted: method as in Van Rossum et al., 1994. To be noted: previously published equilibrium dissociation constant; ref Van Rossum et al., 1994; read-out: Reported Wild Type, Kd of radioligand; cited from earlier work.
Assay [14] deals with T1, wild type CLR-RAMP1 heterodimer (HEK293T-RAMP1 membranes). The experiment in a line: Saturation binding of [^125I-Tyr]CGRP(8–37), wild type CLR. To be noted: per mg wild type membrane protein; mean ± S.E., n = 3 in duplicate. On the procedure:
as §1, §2

The subject of assay [15] is HEK293T-RAMP1 membranes without CLR. Briefly: Radioligand binding, non-transfected or empty-vector HEK293T-RAMP1 membranes. Conditions: increasing radioligand concentrations, data not shown. Here is the method: as §1, §2
Assay [16] deals with T2, CLR-RAMP1 heterodimer with the L34A CLR mutant (human | , UniProt Q16602 23-461; O60894 27-148, L34A). Briefly: cell-based or functional assay.
Assay [17] concerns the target T3, CLR-RAMP1 heterodimer with the L24A CLR mutant (human | , UniProt Q16602 23-461; O60894 27-148, L24A). Briefly: cell-based or functional assay.
Assay [18] deals with T4, CLR-RAMP1 heterodimer, wild type calcitonin-like receptor (CLR) with receptor-activity-modifying protein-1 … (human | , UniProt Q16602 23-461; O60894 27-148). The experiment in a line: cell-based or functional assay.
Assay [19] addresses T5, CLR-RAMP1 heterodimer with the L24A,L34A CLR double mutant (human | , UniProt Q16602 23-461; O60894 27-148, L24A | L34A). Briefly: cell-based or functional assay.
Assay [20] addresses T2, CLR-RAMP1 heterodimer with the L34A CLR …. Briefly: radioligand binding; competition: increasing unlabeled peptide against specific [125I-Tyr]CGRP(8–37) binding on crude membranes of transiently transfected HEK293T-RAMP1 cells, same buffer as the saturation binding; Ki from IC50 by the method of Cheng and Prusoff.
Assay [21] concerns the target T3, CLR-RAMP1 heterodimer with the L24A CLR …. The description is as above.
The target of assay [22] is T4, CLR-RAMP1 heterodimer, wild type …. The description is as above.
Assay [23] has as its target T5, CLR-RAMP1 heterodimer with the …. The assay is described as above.

Entries after “also recorded” stand apart in the source; their conditions may differ. Bridge positions count the residues as written; N and C are the ends. Ends that are not written are not given here. Peptide text beside a SMILES is read from it.

Take `CC(C)C[C@H](NC(=O)CNC(=O)[C@H](C)NC(=O)[C@H](CC(C)C)NC(=O)[C@H](CCCNC(=N)N)NC(=O)[C@H](Cc1c[nH]cn1)NC(=O)[C@@H](NC(=O)[C@@H](NC(=O)[C@@H]1CSSC[C@H](NC(=O)[C@H](C)N)C(=O)N[C@@H](CC(=O)O)C(=O)N[C@@H]([C@@H](C)O)C(=O)N[C@@H](C)C(=O)N[C@@H]([C@@H](C)O)C(=O)N1)C(C)C)[C@@H](C)O)C(=O)N[C@@H](CC(C)C)C(=O)N[C@@H](CO)C(=O)N[C@@H](CCCNC(=N)N)C(=O)N[C@@H](CO)C(=O)NCC(=O)NCC(=O)N[C@H](C(=O)N[C@H](C(=O)N[C@@H](CCCCN)C(=O)N[C@@H](CC(N)=O)C(=O)N[C@@H](CC(N)=O)C(=O)N[C@@H](Cc1ccccc1)C(=O)N[C@H](C(=O)N1CCC[C@H]1C(=O)N[C@H](C(=O)N[C@@H](CC(N)=O)C(=O)N[C@H](C(=O)NCC(=O)N[C@@H](CO)C(=O)N[C@@H](CCCCN)C(=O)N[C@@H](C)C(N)=O)C(C)C)[C@@H](C)O)C(C)C)C(C)C)C(C)C` [CGRP(1–36)] (H-ACDTATCVTHRLAGLLSRSGGVVKNNFVPTNVGSKA-NH2; disulfide 2-7 (inferred); N-terminus assumed): in [1], the “cAMP potency at leucine mutants compared with wild type” value was “no different; also recorded: no significant potency differences”. Moreover, the “affinity for wild type CLR compared with CGRP” value in assay [2] was “significant affinity loss”. Moreover, the “affinity at leucine mutants compared with wild type” value in assay [3] is “no differences”. The “amylase release” value in assay [4] is listed as “increase amylase release”. Besides, in assay [5] (CGRP(1–36) compared with CGRP, CGRP(1–19) compared with CGRP(1–36) and CGRP), the “maximal cAMP response” value is “maximal response was similar”. For the same molecule, the “fold loss of EC50 potency vs CGRP, wild type” value in assay [5] (cAMP EC50 of the fragment compared with CGRP) is “over 2,600 fold”. For the same molecule, the “cAMP potency compared with CGRP, wild type” value in assay [5] (compared to CGRP) is on record as “significantly less”.

Turning to `NCCCC[C@H](NC(=O)[C@@H](Cc1cc(Br)c(O)c(Br)c1)NC(=O)N1CCC(N2Cc3ccccc3NC2=O)CC1)C(=O)N1CCN(c2ccncc2)CC1` [BIBN4096BS], the “affinity for endogenous CGRP receptor” value in [6] is “high affinity”. Besides, in assay [7], the “displacement in competition binding” value is “selectively be displaced in competition binding assays by CGRP and the receptor antagonist, CGRP(8–37)”.

For the molecule AcCGRP(19–37) (peptide), the Ki in assay [8] turned out to be 3 µM; in assay [9] it was 0.227 µM; in [10], 4.6 µM; in [11], 2 µM.

Take “Ac-SGGVVKNNFVPTNVGSKAF-NH2 [AcCGRP(19–37)]”: in [3], the “affinity at leucine mutants compared with wild type” value is on record as “significantly different (P < .05) from the wild type receptor”. Besides, the Kd in [12] was 0.933 µM.

On to `CC(C)C[C@H](NC(=O)CNC(=O)[C@H](C)NC(=O)[C@H](CC(C)C)NC(=O)[C@H](CCCNC(=N)N)NC(=O)[C@H](Cc1c[nH]cn1)NC(=O)[C@@H](NC(=O)[C@@H](NC(=O)[C@@H](N)Cc1ccc(O)c(I)c1)C(C)C)[C@@H](C)O)C(=O)N[C@@H](CC(C)C)C(=O)N[C@@H](CO)C(=O)N[C@@H](CCCNC(=N)N)C(=O)N[C@@H](CO)C(=O)NCC(=O)NCC(=O)N[C@H](C(=O)N[C@H](C(=O)N[C@@H](CCCCN)C(=O)N[C@@H](CC(N)=O)C(=O)N[C@@H](CC(N)=O)C(=O)N[C@@H](Cc1ccccc1)C(=O)N[C@H](C(=O)N1CCC[C@H]1C(=O)N[C@H](C(=O)N[C@@H](CC(N)=O)C(=O)N[C@H](C(=O)NCC(=O)N[C@@H](CO)C(=O)N[C@@H](CCCCN)C(=O)N[C@@H](C)C(=O)N[C@@H](Cc1ccccc1)C(N)=O)C(C)C)[C@@H](C)O)C(C)C)C(C)C)C(C)C` [[^125I-Tyr]CGRP(8–37)], for which, in assay [13], the Kd was 0.0002 µM. For the same molecule, the “fold decrease in affinity, mutant receptors vs wild type” value in assay [3] (L34A and L24A,L34A compared to wild type CLR) is about 10 fold. The “Bmax (maximal specific binding)” value in assay [14] was 285 ± 206 fmols/mg. Also, the “specific binding without CLR” value in assay [15] is “no specific binding”.

ACDTATCVTHRLAGLLSRSGGVVKNNFVPTNVGSKA-NH2 (not fully specified (bridges); cysteine pairing not given here) [CGRP(1–36)]: the “EC50 of cAMP generation in transiently transfected HEK293T-RAMP1 cells” value worked out at 5.6 µM in assay [16], 3.4 µM in assay [17], 4.3 µM in assay [18] and 4.2 µM in [19]. The Ki in [20], in assay [21], in [22] and in assay [23] was over 10 µM throughout.

The Ki is the dissociation constant of the complex between target and ligand, obtained from inhibition or displacement.
